Patent US20250339399A1, “SUPRAMOLECULAR SELF-ASSEMBLY SYSTEM” (Beijing Creatron Institute of Pharmaceutical Research Co., …, priority 2022, published 2025)

What was measured:
[1] = cited from earlier work
[2] = Binary (carrier), ternary and quaternary supramolecular self-assembly systems of polymer, carrier building block and target: guest concentration over incubation time (Examples 1-56); type: physicochemical; settings: 6 h
Summary of the method: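 Targets were incubated at 37 °C in pH 2.0–7.4 buffers with 0.5% polymer alone or with carrier building blocks, after 0.5 h sonication for ternary systems, and shaken at 200 rpm. Samples at 0.5–6 h were centrifuged and diluted ≥10-fold, and dissolved target was quantified by HPLC; surfactant was added if needed.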

[3] = Guest molecule concentration after incubation in initial medium without polymer (Comparative Example 1); type: physicochemical; settings: 37° C.
Summary of the method: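 Dissolved guest content measured by HPLC of centrifuged supernatants (37° C., 13000 rpm, 5 min) sampled at 0.5 h, 3 h and 6 h. Incubation was polymer-free at 37° C.±0.5° C. in buffers of pH 2.0-7.4; nominal loading was set by maximum clinical dose.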

[4] = Binary supramolecular self-assembly systems of polymer and target: guest concentration over incubation time (Comparative Example 2); type: physicochemical; settings: for Concentration of guest molecule in solution / Times that of the initial medium: 6 h
Procedure: Experiments were conducted according to the steps in Comparative Example 1, and quantitative analysis was carried out using the analytical method for each target to investigate the regulation ability […] stacking.

[5] = binary system with 0.5% polymer 101, incubation 0.5 h
[6] = binary system with 0.5% polymer 101, incubation 3 h
[7] = binary system with 0.5% polymer 101, incubation 6 h
[8] = binary system with 0.5% polymer 102, incubation 0.5 h
[9] = binary system with 0.5% polymer 102, incubation 3 h
[10] = binary system with 0.5% polymer 102, incubation 6 h
[11] = binary system with 0.5% polymer 103, incubation 0.5 h
[12] = binary system with 0.5% polymer 103, incubation 3 h
[13] = binary system with 0.5% polymer 103, incubation 6 h
[14] = binary system with 0.5% polymer 104, incubation 0.5 h
[15] = binary system with 0.5% polymer 104, incubation 3 h
[16] = binary system with 0.5% polymer 104, incubation 6 h
[17] = binary system with 0.5% polymer 106, incubation 0.5 h
[18] = binary system with 0.5% polymer 106, incubation 3 h
[19] = binary system with 0.5% polymer 106, incubation 6 h
[20] = binary system with 0.5% polymer 107, incubation 0.5 h
[21] = binary system with 0.5% polymer 107, incubation 3 h
[22] = binary system with 0.5% polymer 107, incubation 6 h
[23] = system built by polymers 102H and 103E3 with carrier 302
[24] = ternary: 102H (0.25% where stated) + 301, carrier % not stated

Structure (SMILES) | LogD7.4 or Log P [1] | Concentration of guest molecule measured after different incubated time ([3]; 0.5 h, pH 6.8 phosphate buffer) | Concentration of guest molecule measured after different incubated time ([3]; 3 h, pH 6.8 phosphate buffer) | Concentration of guest molecule measured after different incubated time ([3]; 6 h, pH 6.8 phosphate buffer) | Concentration of the target in the solution measured after different incubation time [4, 5] | Concentration of the target in the solution measured after different incubation time [4, 6] | Concentration of the target in the solution measured after different incubation time [4, 7] | Concentration of the target in the solution measured after different incubation time [4, 8] | Concentration of the target in the solution measured after different incubation time [4, 9] | Concentration of the target in the solution measured after different incubation time [4, 10] | Concentration of the target in the solution measured after different incubation time [4, 11] | Concentration of the target in the solution measured after different incubation time [4, 12] | Concentration of the target in the solution measured after different incubation time [4, 13] | Concentration of the target in the solution measured after different incubation time [4, 14] | Concentration of the target in the solution measured after different incubation time [4, 17] | Concentration of the target in the solution measured after different incubation time [4, 18] | Concentration of the target in the solution measured after different incubation time [4, 19] | Concentration of the target in the solution measured after different incubation time [4, 20] | Concentration of the target in the solution measured after different incubation time [4, 21] | Concentration of the target in the solution measured after different incubation time [4, 22] | also measured
COc1cc2nccc(Oc3ccc(NC(=O)NC4CC4)c(Cl)c3)c2cc1C(N)=O [Lenvatinib] | 2.52 | 7.6 µg/mL | 1.7 µg/mL | 0.9 µg/mL | 45.5 µg/mL | 29.3 µg/mL | 28.6 µg/mL | 76.8 µg/mL | 26.2 µg/mL | 27.8 µg/mL | 12.9 µg/mL | 11.3 µg/mL | 7.6 µg/mL | 37.8 µg/mL | 7.3 µg/mL | 7.9 µg/mL | 6.5 µg/mL | 68.2 µg/mL | 9.7 µg/mL | 6.1 µg/mL | Concentration of guest molecule in solution ([2]; quaternary: 0.25% 205 (102H+104) + 310): 116.4 µg/mL; Concentration of guest molecule in solution ([2]; quaternary: 0.25% 205 (102H+104) + 313, carrier % not stated): 112.1 µg/mL; Concentration of the target in the solution measured after different incubation time [4, 15]: 42.7 µg/mL; Concentration of the target in the solution measured after different incubation time [4, 16]: 67.5 µg/mL; Concentration of guest molecule in solution ([4]; binary: 102H, % not stated at the place): 59.5 µg/mL; Concentration of guest molecule in solution ([4]; binary: 104, % not stated at the place): 47.6 µg/mL
CCCNS(=O)(=O)Nc1ncnc(OCCOc2ncc(Br)cn2)c1-c1ccc(Br)cc1 [Macitentan] |  | 35.0 µg/mL | 33.8 µg/mL | 28.0 µg/mL | 56.0 µg/mL | 75.2 µg/mL | 46.2 µg/mL | 56.5 µg/mL | 71.5 µg/mL | 89.5 µg/mL | 34.3 µg/mL | 28.5 µg/mL | 27.7 µg/mL |  | 41.5 µg/mL | 35.6 µg/mL | 32.5 µg/mL | 46.5 µg/mL | 43.5 µg/mL | 39.3 µg/mL | LogP [1]: LogP 3.55; Concentration of guest molecule in solution ([2]; Comparative Example 4, quaternary: 0.25% 201 + 0.25% 305): 59.5 µg/mL; Concentration of guest molecule in solution ([2]; Comparative Example 4, quaternary: 0.25% 201 + 0.25% 309): 29.2 µg/mL; Concentration of guest molecule in solution ([2]; quaternary: 0.25% 201 (102H+101) + 0.25% 307): 362.5 µg/mL; Concentration of guest molecule in solution ([2]; quaternary: 0.25% 201 (102H+101) + 0.25% 308): 516.0 µg/mL; Concentration of guest molecule in solution ([2]; quaternary: 0.25% 201 (102H+101) + 0.25% 313): 474.6 µg/mL; Concentration of guest molecule in solution ([2]; quaternary: 0.25% 201 (102H+101) + 0.25% 320): 562.4 µg/mL; Concentration of guest molecule in solution ([2]; quaternary: 0.25% 201 (102H+101) + 0.25% 321): 596.3 µg/mL; Concentration of the target in the solution measured after different incubation time ([4]; binary system with 0.5% polymer 110, incubation 0.5 h): 28.7 µg/mL; Concentration of the target in the solution measured after different incubation time ([4]; binary system with 0.5% polymer 110, incubation 3 h): 34.7 µg/mL; Concentration of the target in the solution measured after different incubation time ([4]; binary system with 0.5% polymer 110, incubation 6 h): 33.5 µg/mL; Concentration of guest molecule in solution ([4]; binary: 0.5% 101): 46.2 µg/mL; Times that of the initial medium ([4]; binary: 0.5% 101): 4.3 times; Concentration of guest molecule in solution ([4]; binary: 0.5% 102H): 89.5 µg/mL; Times that of the initial medium ([4]; binary: 0.5% 102H): 10.4 times
Cc1cn(-c2cc(NC(=O)c3ccc(C)c(Nc4nccc(-c5cccnc5)n4)c3)cc(C(F)(F)F)c2)cn1 [Nilotinib] | 5.35 |  |  |  | 117.0 µg/mL | 145.8 µg/mL | 149.9 µg/mL | 96.7 µg/mL | 188.9 µg/mL | 189.9 µg/mL | 125.2 µg/mL | 159.3 µg/mL | 181.5 µg/mL | 77.5 µg/mL | 121.2 µg/mL | 81.8 µg/mL | 50.0 µg/mL | 107.2 µg/mL | 62.3 µg/mL | 52.3 µg/mL | Dissociation constant ([1]; basic drug): 5.92; Log D6.8 ([1]; pH 6.8): 5.27; Concentration of guest molecule in solution [2, 23]: 391.1 µg/mL; Encapsulation rate for the guest molecule [2, 23]: 97.8%; Concentration of guest molecule in solution [2, 24]: 227.2 µg/mL; Times that of the initial medium [2, 24]: 10 times; Concentration of guest molecule in solution ([2]; ternary: 102H + 310, carrier % not stated): 317.6 µg/mL; Concentration of guest molecule in solution ([2]; ternary: 102H + 313, carrier % not given): 365.2 µg/mL; Concentration of guest molecule in solution ([2]; ternary: 102M + 310): 344.0 µg/mL; Concentration of guest molecule in solution ([2]; ternary: 102M + 313): 328.9 µg/mL; Concentration of guest molecule measured after different incubated time ([3]; 0.5 h, 0.05% SDS in pH 6.8 phosphate buffer): 35.2 µg/mL; Concentration of guest molecule measured after different incubated time ([3]; 3 h, 0.05% SDS in pH 6.8 phosphate buffer): 24.2 µg/mL; Concentration of guest molecule measured after different incubated time ([3]; 6 h, 0.05% SDS in pH 6.8 phosphate buffer): 17.9 µg/mL; Concentration of the target in the solution measured after different incubation time [4, 15]: 84.9 µg/mL; Concentration of the target in the solution measured after different incubation time [4, 16]: 61.4 µg/mL; Times that of the initial medium ([4]; binary: 0.5% 102H): about 8.5 times; Times that of the initial medium ([4]; binary: 0.5% 104): ~2.7 times
